Assay: cn = amount concentration of the nth substance listed, in mol/dm3
Conditions: 101 kPa, Liquid

NCCC(=O)[O-].[K+] [potassium Salt of B-alanine] + O
Conditions	mass density, 298.15 K [kg/m3]	mass density, 303.15 K [kg/m3]	mass density, 313.15 K [kg/m3]	mass density, 323.15 K [kg/m3]	mass density, 333.15 K [kg/m3]	viscosity, 298.15 K [mPa·s]	viscosity, 303.15 K [mPa·s]	viscosity, 313.15 K [mPa·s]	viscosity, 323.15 K [mPa·s]	viscosity, 333.15 K [mPa·s]
c1 = 0.496	1026	1024	1020	1017	1011	1.05	0.944	0.762	0.638	0.546
c1 = 1.003	1053	1053	1048	1043	1038	1.23	1.097	0.892	0.744	0.634
c1 = 1.492	1079	1078	1074	1070	1065	1.453	1.293	1.049	0.871	0.737
c1 = 2.019	1107	1106	1100	1096	1090	1.759	1.548	1.25	1.027	0.866
c1 = 2.492	1133	1131	1126	1121	1116	2.131	1.881	1.497	1.223	1.022
c1 = 2.964	1157	1155	1150	1145	1140	2.609	2.293	1.808	1.464	1.217
c1 = 3.417	1181	1179	1174	1169	1162	3.245	2.832	2.209	1.77	1.459

CNCC(=O)[O-].[K+] [potassium Salt of sarcosine] + O
Conditions	mass density, 298.15 K [kg/m3]	mass density, 303.15 K [kg/m3]	mass density, 313.15 K [kg/m3]	mass density, 323.15 K [kg/m3]	mass density, 333.15 K [kg/m3]	viscosity, 298.15 K [mPa·s]	viscosity, 303.15 K [mPa·s]	viscosity, 313.15 K [mPa·s]	viscosity, 323.15 K [mPa·s]	viscosity, 333.15 K [mPa·s]
c1 = 0.51	1024	1023	1019	1015	1010	1.018	0.913	0.748	0.627	0.538
c1 = 1.01	1051	1049	1045	1041	1036	–	–	–	–	–
c1 = 1.019	–	–	–	–	–	1.185	1.06	0.876	0.759	0.614
c1 = 1.534	1077	1074	1070	1065	1060	1.408	1.252	1.005	0.833	0.703
c1 = 2.019	1103	1100	1096	1091	1085	1.663	1.466	1.18	0.968	0.811
c1 = 2.445	1124	1121	1117	1111	1106	1.959	1.707	1.356	1.098	0.919
c1 = 2.987	1150	1148	1143	1138	1132	2.493	2.185	1.721	1.395	1.115

CSCCC(N)C(=O)[O-].[K+] (stereo not drawn) [potassium salt of DL-methionine] + O
Conditions	mass density, 298.15 K [kg/m3]	mass density, 303.15 K [kg/m3]	mass density, 313.15 K [kg/m3]	mass density, 323.15 K [kg/m3]	mass density, 333.15 K [kg/m3]	viscosity, 298.15 K [mPa·s]	viscosity, 303.15 K [mPa·s]	viscosity, 313.15 K [mPa·s]	viscosity, 323.15 K [mPa·s]	viscosity, 333.15 K [mPa·s]
c1 = 0.252	1016	1014	1010	1006	1003	0.987	0.884	0.722	0.608	0.519
c1 = 0.503	1033	1032	1027	1023	1020	1.109	0.987	0.806	0.675	0.575
c1 = 0.732	1051	1049	1044	1039	1037	1.263	1.125	0.909	0.754	0.64
c1 = 0.994	1067	1065	1060	1055	1053	1.425	1.264	1.019	0.84	0.708
c1 = 1.252	1084	1083	1077	1072	1069	1.654	1.478	1.161	0.952	0.799
c1 = 1.479	1100	1098	1093	1087	1085	1.883	1.657	1.316	1.071	0.893

From the NIST ThermoML archive (doi:10.1021/je700699u)
